pIC50: −log10 of the molar value. Read-outs that look alike come from different tables or passages of the source.
What was measured:
Cell viability XTT assay [1] = assay type: cell-based; settings: human, SH-SY5Y cells, read-out: Viability of treated cells relative to untreated control
DYRK1A [2] = biological target: T1, DYRK1A (Homo sapiens, UniProt Q13627); assay: Kinase-GLO luminescent kinase assay; assay type: biochemical; settings: 1 μM compound; means of at least 3 measurements
T1 construct: purchased ProQinase (Freiburg, Germany)
Description: (§1) Bacterial expression plasmids for GST-DYRK1A-ΔC and GST-DYRK2 have been described earlier. […] Expression in logarithmically growing E. coli culture was performed for 3 h at 37°C (GST-DYRK1A-ΔC and GST-DYRK2), 3 h at 26°C (GST-HIPK2cat), over night at 28°C (GST-CLK1cat) or over night at room temperature (GST-DYRK1Bcat).
(§2) Compounds were screened for inhibitory effects against GST-DYRK1A-ΔC, GST-DYRK1Bcat, GST-DYRK2, GST-CLK1cat or GST-HIPK2cat using the Kinase-GLO Luminescent Kinase Assay from Promega. Assays were performed in a total volume of 10 μL in kinase-buffer (25 mM Hepes pH 7.4, 0.5 mM DTT, 5 mM MgCl2, 5 μM ATP) with appropriate peptide substrates (20 μM DYRKtide for the DYRKs and 100 μM DYRKtide for HIPK2, […]; or 100 μM RS domain-derived peptide for CLK1, […]). Assays were started with this amount of a kinase preparation that consumed approximately 90% of the ATP in the assay (linear range of the kinase titration curve). The reactions were run at room temperature for 30 min before 10 μL Kinase-GLO reagent was added. After incubation at room temperature for additional 10 min, luminescence was recorded for 1 s.

DYRK2 [3] = biological target: T2, DYRK2 (Homo sapiens, UniProt Q92630); assay: Kinase-GLO luminescent kinase assay; assay type: biochemical; settings: 1 μM compound; means of at least 3 measurements
T2 construct: purchased ProQinase (Freiburg, Germany)
T2 sequence (Q92630 1-601): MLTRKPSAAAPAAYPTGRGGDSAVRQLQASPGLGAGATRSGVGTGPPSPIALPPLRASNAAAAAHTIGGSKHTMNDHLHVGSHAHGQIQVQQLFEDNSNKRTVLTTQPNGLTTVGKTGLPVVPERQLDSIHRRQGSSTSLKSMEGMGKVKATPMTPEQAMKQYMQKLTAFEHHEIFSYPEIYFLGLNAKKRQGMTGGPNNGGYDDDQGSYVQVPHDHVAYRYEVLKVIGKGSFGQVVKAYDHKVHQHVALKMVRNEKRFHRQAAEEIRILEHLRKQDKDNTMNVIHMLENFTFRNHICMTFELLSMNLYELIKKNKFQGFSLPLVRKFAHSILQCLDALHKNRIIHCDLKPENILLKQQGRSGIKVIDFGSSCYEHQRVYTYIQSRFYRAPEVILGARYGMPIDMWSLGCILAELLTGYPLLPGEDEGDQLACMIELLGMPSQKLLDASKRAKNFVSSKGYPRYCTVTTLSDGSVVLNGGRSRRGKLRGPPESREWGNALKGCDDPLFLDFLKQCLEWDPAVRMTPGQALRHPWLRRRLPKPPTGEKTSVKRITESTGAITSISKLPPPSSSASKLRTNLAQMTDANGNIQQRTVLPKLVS
Description: as §1, §2

DYRK1A [4] = biological target: T3, DYRK1A (Rattus norvegicus, UniProt Q63470); assay: Radioactive kinase assay (DYRKtide, 33P-ATP); assay type: biochemical; settings: 100 μM ATP, n = 3–5 concentration response curves, read-out: Inhibition of DYRK1A IC50
T3 construct: Bacterial expression plasmids for GST-DYRK1A-ΔC and GST-DYRK2 have been described earlier; made in house; host or cells: E. coli
Description: Each sample was assayed in triplicate. […]
estimate solubility and permeability in drug discovery and development settings. Adv. Drug Delivery Rev. 23, 4-25. […]
that influence the oral bioavailability of drug candidates. […]
c estimated using the Molinspiration logP engine. […]
log [inhibitor,M] log [inhibitor, M]
(§3) 2 were calculated. Kinase activity of DYRK1A was determined by radiometric assays using the peptide DYRKtide as a substrate. MAO-A activity was measured with the help of the MAO-GLO assay kit (Promega). IC50 values were calculated by curve fitting with the help of […]
(§4) the […] PRISM 5.0 program after automatic outlier elimination. The graphs present

Cell viability XTT assay [5] = assay type: cell-based; settings: rat, PC12 cells, read-out: Viability of treated cells relative to untreated control; for viability at 3 days, 1 µM: PC12, 1 μM; for viability at 3 days, 3 µM: PC12, 3 μM; for viability at 3 days, 10 µM: PC12, 10 μM
MAO-A = biological target: T4, MAO-A (Homo sapiens, UniProt P21397); assay: MAO-GLO assay; assay type: biochemical; settings: for pIC50: read-out: Inhibition of MAO-A IC50
T4 sequence (P21397 1-527): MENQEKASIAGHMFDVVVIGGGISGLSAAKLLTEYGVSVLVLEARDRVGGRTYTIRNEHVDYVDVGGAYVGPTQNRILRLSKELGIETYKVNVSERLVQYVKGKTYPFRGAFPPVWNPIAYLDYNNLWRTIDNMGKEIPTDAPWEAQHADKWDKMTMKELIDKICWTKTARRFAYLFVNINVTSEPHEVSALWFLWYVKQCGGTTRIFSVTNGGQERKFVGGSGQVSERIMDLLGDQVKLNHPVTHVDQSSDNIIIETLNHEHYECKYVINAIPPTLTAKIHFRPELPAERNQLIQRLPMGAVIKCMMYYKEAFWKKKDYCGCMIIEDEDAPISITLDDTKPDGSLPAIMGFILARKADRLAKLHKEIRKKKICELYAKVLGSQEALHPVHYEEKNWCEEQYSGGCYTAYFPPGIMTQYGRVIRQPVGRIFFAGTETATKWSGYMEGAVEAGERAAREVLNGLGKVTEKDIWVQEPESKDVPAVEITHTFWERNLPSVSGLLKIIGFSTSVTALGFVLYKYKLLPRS
Description: as §3, §4

Cell viability XTT assay [6] = assay type: cell-based; settings: human, HeLa cells, read-out: Viability of treated cells relative to untreated control
CLK1 [7] = biological target: T5, CLK1 (Homo sapiens, UniProt P49759); assay: Kinase-GLO luminescent kinase assay; assay type: biochemical; design: made in house; host or cells: E. coli; settings: 1 μM compound; means of at least 3 measurements
Description: as §1, §2

DYRK1B = DYRK1B (Homo sapiens, UniProt Q9Y463); assay: Kinase-GLO luminescent kinase assay; assay type: biochemical; design: made in house; host or cells: E. coli; settings: 1 μM compound; means of at least 3 measurements
Description: as §1, §2

HIPK2 = HIPK2 (Homo sapiens, UniProt Q9H2X6); assay: Kinase-GLO luminescent kinase assay; assay type: biochemical; design: made in house; host or cells: E. coli; settings: 10 μM compound; means of at least 3 measurements
Description: as §1, §2

PIM1 = PIM1 (Homo sapiens, UniProt P11309); design: purchased ProQinase (Freiburg, Germany); settings: 10 μM; cited from earlier work
DYRK4 = biological target: T6, DYRK4 (Homo sapiens, UniProt Q9NR20); settings: 10 μM; cited from earlier work
T6 construct: purchased ProQinase (Freiburg, Germany)

CLK3 = biological target: T7, CLK3 (Homo sapiens, UniProt P49761); settings: 10 μM; cited from earlier work
T7 construct: purchased ProQinase (Freiburg, Germany)

DYRK2 [8] = biological target: T2, DYRK2; settings: 10 μM; cited from earlier work
CLK1 [9] = biological target: T5, CLK1; design: purchased ProQinase (Freiburg, Germany); settings: 10 μM; cited from earlier work
DYRK1A [10] = settings: given because %-activity values are not given in the reference; read-out: IC50; cited from earlier work
DYRK3 = biological target: T8, DYRK3 (Homo sapiens, UniProt O43781); settings: 10 μM; cited from earlier work
T8 construct: purchased ProQinase (Freiburg, Germany)
T8 sequence (O43781 1-588): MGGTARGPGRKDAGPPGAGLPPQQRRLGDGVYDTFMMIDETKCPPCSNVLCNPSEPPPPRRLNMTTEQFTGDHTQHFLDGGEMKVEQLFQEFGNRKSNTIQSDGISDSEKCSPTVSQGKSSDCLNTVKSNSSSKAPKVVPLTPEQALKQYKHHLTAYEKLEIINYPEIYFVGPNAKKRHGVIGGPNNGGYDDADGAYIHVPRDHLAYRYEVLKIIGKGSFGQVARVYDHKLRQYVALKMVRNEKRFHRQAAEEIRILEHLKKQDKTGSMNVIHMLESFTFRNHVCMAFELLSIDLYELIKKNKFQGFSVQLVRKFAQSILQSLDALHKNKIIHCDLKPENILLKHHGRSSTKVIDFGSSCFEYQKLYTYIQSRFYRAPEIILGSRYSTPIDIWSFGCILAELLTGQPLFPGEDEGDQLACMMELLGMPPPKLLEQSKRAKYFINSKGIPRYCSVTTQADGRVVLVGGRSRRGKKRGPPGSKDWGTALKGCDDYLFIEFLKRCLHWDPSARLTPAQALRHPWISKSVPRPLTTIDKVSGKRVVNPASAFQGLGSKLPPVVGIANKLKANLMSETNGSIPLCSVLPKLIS

HIPK1 = HIPK1 (Homo sapiens, UniProt Q86Z02); design: purchased ProQinase (Freiburg, Germany); settings: 10 μM; cited from earlier work
CLK2 = biological target: T9, CLK2 (Homo sapiens, UniProt P49760); settings: 10 μM; cited from earlier work
T9 construct: purchased ProQinase (Freiburg, Germany)

[11] = n = 3–5 concentration response curves

HIPK2, sequence (Q9H2X6 180-533): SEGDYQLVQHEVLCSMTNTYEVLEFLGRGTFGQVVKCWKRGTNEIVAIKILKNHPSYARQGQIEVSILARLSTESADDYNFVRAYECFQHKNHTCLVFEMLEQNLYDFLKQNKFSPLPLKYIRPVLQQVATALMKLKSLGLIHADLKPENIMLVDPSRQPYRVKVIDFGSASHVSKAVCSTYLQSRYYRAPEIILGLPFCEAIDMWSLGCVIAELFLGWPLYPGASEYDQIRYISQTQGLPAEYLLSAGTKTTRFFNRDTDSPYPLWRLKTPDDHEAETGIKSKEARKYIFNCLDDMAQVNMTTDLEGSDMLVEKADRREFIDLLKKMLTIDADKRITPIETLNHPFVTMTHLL
HIPK1, sequence (Q86Z02 whole entry): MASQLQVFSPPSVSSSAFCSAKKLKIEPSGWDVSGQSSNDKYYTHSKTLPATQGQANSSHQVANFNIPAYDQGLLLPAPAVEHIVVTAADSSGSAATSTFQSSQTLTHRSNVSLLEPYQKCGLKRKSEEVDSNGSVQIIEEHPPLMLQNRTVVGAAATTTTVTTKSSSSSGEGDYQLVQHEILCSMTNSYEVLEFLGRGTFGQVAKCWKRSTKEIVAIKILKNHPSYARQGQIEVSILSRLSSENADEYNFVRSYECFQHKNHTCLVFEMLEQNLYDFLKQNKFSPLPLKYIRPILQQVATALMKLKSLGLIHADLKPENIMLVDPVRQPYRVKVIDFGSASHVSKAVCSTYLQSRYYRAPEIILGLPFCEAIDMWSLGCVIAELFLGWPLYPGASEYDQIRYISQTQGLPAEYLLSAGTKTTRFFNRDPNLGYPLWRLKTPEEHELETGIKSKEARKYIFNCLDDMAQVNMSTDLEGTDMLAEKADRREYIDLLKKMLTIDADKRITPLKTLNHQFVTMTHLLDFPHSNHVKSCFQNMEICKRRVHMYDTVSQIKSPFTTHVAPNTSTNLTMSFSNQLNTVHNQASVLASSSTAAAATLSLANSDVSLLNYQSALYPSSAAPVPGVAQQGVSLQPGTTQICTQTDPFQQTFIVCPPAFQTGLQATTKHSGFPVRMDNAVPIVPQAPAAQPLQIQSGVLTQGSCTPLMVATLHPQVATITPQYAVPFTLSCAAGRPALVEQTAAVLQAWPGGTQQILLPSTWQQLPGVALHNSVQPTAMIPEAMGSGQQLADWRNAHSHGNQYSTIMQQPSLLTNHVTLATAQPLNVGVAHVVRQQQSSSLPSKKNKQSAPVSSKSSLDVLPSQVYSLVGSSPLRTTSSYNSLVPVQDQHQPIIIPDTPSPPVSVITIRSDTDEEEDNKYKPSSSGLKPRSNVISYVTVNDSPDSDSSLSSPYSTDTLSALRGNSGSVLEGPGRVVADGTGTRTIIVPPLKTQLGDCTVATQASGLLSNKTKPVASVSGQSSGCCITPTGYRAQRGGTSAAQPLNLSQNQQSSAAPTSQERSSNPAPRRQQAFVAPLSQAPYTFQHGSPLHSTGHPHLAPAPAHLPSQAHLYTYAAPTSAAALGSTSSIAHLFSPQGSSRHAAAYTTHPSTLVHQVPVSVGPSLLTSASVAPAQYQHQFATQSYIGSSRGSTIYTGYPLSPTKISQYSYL
T7 sequence (P49761 whole entry): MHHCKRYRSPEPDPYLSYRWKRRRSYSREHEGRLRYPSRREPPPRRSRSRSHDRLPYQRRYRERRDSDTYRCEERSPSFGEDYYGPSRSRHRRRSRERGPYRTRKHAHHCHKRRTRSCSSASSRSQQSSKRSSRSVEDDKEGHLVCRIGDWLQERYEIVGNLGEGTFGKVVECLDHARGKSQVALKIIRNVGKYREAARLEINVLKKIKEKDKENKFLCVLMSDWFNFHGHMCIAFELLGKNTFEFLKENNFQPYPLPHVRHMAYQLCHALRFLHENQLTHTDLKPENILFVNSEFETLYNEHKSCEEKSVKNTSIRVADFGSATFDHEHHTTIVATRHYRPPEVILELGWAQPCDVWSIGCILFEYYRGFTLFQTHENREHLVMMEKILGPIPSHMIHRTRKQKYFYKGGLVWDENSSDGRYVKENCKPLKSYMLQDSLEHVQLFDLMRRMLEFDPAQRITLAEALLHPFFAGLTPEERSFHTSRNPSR
T9 sequence (P49760 whole entry): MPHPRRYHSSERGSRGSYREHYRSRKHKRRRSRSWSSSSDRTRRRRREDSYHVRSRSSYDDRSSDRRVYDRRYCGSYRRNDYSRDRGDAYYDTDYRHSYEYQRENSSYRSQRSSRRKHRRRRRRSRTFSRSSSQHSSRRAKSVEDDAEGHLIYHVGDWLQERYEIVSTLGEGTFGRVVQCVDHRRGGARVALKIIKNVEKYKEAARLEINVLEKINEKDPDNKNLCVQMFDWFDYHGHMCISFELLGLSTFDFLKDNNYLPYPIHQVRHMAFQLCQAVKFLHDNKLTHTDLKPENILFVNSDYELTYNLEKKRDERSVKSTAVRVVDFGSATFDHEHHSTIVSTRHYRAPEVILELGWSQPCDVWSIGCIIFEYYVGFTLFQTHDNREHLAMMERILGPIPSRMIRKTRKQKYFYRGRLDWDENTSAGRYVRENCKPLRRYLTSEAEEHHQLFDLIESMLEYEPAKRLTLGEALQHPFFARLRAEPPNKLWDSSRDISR
T6 sequence (Q9NR20 whole entry): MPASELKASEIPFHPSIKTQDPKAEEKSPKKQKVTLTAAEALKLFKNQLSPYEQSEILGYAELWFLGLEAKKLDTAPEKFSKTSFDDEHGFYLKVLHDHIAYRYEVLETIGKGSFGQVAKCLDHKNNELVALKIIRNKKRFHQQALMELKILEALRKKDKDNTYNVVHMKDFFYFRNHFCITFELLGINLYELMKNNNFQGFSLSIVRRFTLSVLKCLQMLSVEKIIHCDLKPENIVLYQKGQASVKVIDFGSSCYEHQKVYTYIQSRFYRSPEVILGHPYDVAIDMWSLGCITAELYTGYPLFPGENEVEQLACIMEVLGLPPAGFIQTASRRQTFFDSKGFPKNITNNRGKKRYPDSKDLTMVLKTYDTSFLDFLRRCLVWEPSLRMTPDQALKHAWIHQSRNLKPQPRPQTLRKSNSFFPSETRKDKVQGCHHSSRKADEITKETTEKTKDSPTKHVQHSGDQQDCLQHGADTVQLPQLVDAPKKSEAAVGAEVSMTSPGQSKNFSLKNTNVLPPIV
PIM1, sequence (P11309 whole entry): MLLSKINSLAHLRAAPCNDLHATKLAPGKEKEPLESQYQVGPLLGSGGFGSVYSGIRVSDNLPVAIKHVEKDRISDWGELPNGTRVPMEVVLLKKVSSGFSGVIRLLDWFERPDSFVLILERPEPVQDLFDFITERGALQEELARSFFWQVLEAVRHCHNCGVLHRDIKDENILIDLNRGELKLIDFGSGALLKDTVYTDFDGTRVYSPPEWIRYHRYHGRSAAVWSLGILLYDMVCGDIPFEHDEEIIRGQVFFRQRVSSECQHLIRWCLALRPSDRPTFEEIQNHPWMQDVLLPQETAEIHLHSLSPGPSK

In the case of `COc1ccc2c3ccnc(C)c3n(CC#N)c2c1` [AnnH31], the viability at 3 days, 1 µM (Cell viability XTT assay [1]) was 81%, the viability at 3 days, 3 µM (Cell viability XTT assay [1]) was 88% and the viability at 3 days, 10 µM (Cell viability XTT assay [1]) was 38%. For the same compound, the “Residual activity (% of control) DYRK1A” value (DYRK1A [2]) was 8 % of control, the “Residual activity (% of control) DYRK2” value (DYRK2 [3]) was 59 % of control and the pIC50 (DYRK1A [4]) was 7.09. The viability at 3 days, 1 µM (Cell viability XTT assay [5]) was 89%, the viability at 3 days, 3 µM (Cell viability XTT assay [5]) was 88% and the viability at 3 days, 10 µM (Cell viability XTT assay [5]) was 70%. For the same compound, the inhibition at 1 µM (MAO-A; 1 μM, primary screen) was 25%, the pIC50 (MAO-A; [11]) was 5.49 and the “selectivity for DYRK1A over MAO-A” value (MAO-A; ratio of IC50 values) was 40 fold. The pIC50 (MAO-A) was 5.49, the viability at 3 days, 1 µM (Cell viability XTT assay [6]) was 93% and the viability at 3 days, 3 µM (Cell viability XTT assay [6]) was 80%. For the same compound, the viability at 3 days, 10 µM (Cell viability XTT assay [6]) was 55%, the “Residual activity (% of control) CLK1” value (CLK1 [7]) was 11 % of control and the “Residual activity (% of control) DYRK1B” value (DYRK1B) was 7 % of control. For the same compound, the “Residual activity (% of control) HIPK2” value (HIPK2) was 70 % of control.

Compound `COc1ccc2c3ccnc(C)c3n(C(C)C#N)c2c1` (centres unmarked) [AnnH43] has a viability at 3 days, 1 µM (Cell viability XTT assay [1]) of 61%, a viability at 3 days, 3 µM (Cell viability XTT assay [1]) of 68% and a viability at 3 days, 10 µM (Cell viability XTT assay [1]) of 45%. For the same compound, the “Residual activity (% of control) DYRK1A” value (DYRK1A [2]) was 5 % of control, the “Residual activity (% of control) DYRK2” value (DYRK2 [3]) was 56 % of control and the pIC50 (DYRK1A [4]) was 6.69. The viability at 3 days, 1 µM (Cell viability XTT assay [5]) was 88%, the viability at 3 days, 3 µM (Cell viability XTT assay [5]) was 88% and the viability at 3 days, 10 µM (Cell viability XTT assay [5]) was 90%. It also gave a pIC50 (MAO-A; [11]) of 5.27, a viability at 3 days, 1 µM (Cell viability XTT assay [6]) of 91% and a viability at 3 days, 3 µM (Cell viability XTT assay [6]) of 80%. For the same compound, the viability at 3 days, 10 µM (Cell viability XTT assay [6]) was 66%, the “Residual activity (% of control) CLK1” value (CLK1 [7]) was 10 % of control and the “Residual activity (% of control) DYRK1B” value (DYRK1B) was 14 % of control. The “Residual activity (% of control) HIPK2” value (HIPK2) was 84 % of control.

For `CCN1/C(=C/C(C)=O)Sc2ccc(O)cc21` [INDY], the “Residual activity (% of control)” value (PIM1) is given as 2 % of control, the “Residual activity (% of control)” value (DYRK4) is given as 13 % of control and the “Residual activity (% of control)” value (CLK3) is given as 30 % of control. The “Residual activity (% of control)” value (DYRK2 [8]) was 3 % of control, the “Residual activity (% of control)” value (CLK1 [9]) was 1 % of control and the pIC50 (DYRK1A [10]) was […]. The “Residual activity (% of control)” value (DYRK3) was 0 % of control, the “Residual activity (% of control)” value (HIPK1) was 64 % of control and the “Residual activity (% of control)” value (CLK2) was 12 % of control.
